This assay concerns L1210 leukemia ip in BDF1 mice, survival T/C. In words: NCI In Vivo Anticancer Drug Screen. Data for tumor model L1210 Leukemia (intraperitoneal) in B6D2F1 (BDF1) mice. The note with it: endpoint: mean survival time, higher = longer survival. The method in brief: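 Read-out is survival time, reported as the treated-group measurement over the vehicle-control measurement.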
Setting [1] is: dose: 100.0 mg/kg/injection, schedule: Q01DX001 (ip), vehicle: saline.
[2] abbreviates: dose: 100.0 mg/kg/injection, schedule: Q04DX003 (ip), vehicle: saline.
[3] abbreviates: dose: 200.0 mg/kg/injection, schedule: Q01DX001 (ip), vehicle: saline.
Setting [4] is: dose: 200.0 mg/kg/injection, schedule: Q04DX003 (ip), vehicle: saline.
The mark [5] stands for this setting: dose: 400.0 mg/kg/injection, schedule: Q01DX001 (ip), vehicle: saline.
Setting [6] is: dose: 400.0 mg/kg/injection, schedule: Q04DX003 (ip), vehicle: saline.

This is an account of results in PubChem BioAssay AID248 (DTP/NCI, 2004).

“And” between values parts separate entries of the source, which are not always exact repeats. Identical values can stand only once. Inconclusive results and toxic doses are left out.

Turning to `O=NN(CCCl)C(=O)NC1CCSc2ccccc21` (configuration not stated), the T/C (dose: 18.0 mg/kg/injection, schedule: Q01DX001 (ip), vehicle: other) was 170 % of control and 182 % of control and 219 % of control; the T/C (dose: 26.0 mg/kg/injection, schedule: Q01DX001 (ip), vehicle: other) was 232 % of control; the T/C (dose: 27.0 mg/kg/injection, schedule: Q01DX001 (ip), vehicle: other) is 306 % of control and 315 % of control; the T/C (dose: 40.0 mg/kg/injection, schedule: Q01DX001 (ip), vehicle: other) was 323 % of control and 340 % of control and 356 % of control; the T/C (dose: 60.0 mg/kg/injection, schedule: Q01DX001 (ip), vehicle: other) is 289 % of control and 313 % of control and 365 % of control; the T/C (dose: 187.5 mg/kg/injection, schedule: Q01DX001 (ip), vehicle: other) is 96 % of control.

In the case of `COc1cccc(CCC(=O)c2ccccc2)c1`, the T/C reads like this: (dose: 100.0 mg/kg/injection, schedule: Q04DX002 (ip), vehicle: Klucel (hydroxypropylcellulose) (HPC)) 106 % of control; (dose: 200.0 mg/kg/injection, schedule: Q04DX002 (ip), vehicle: Klucel (hydroxypropylcellulose) (HPC)) 90 % of control; (dose: 400.0 mg/kg/injection, schedule: Q04DX002 (ip), vehicle: Klucel (hydroxypropylcellulose) (HPC)) 94 % of control.

With `C#CCOC(=O)CCC(=O)OCC#C`, the T/C under setting [1] is 103 % of control; the T/C (dose: 100.0 mg/kg/injection, schedule: Q01DX009 (ip), vehicle: saline) was 94 % of control; the T/C under setting [2] is 94 % of control; the T/C under setting [3] is 100 % of control; the T/C (dose: 200.0 mg/kg/injection, schedule: Q01DX009 (ip), vehicle: saline) was 97 % of control; the T/C under setting [4] is 96 % of control. The T/C runs as follows: under setting [5], 100 % of control; (dose: 400.0 mg/kg/injection, schedule: Q01DX009 (ip), vehicle: saline) 94 % of control; under setting [6], 98 % of control.

Consider `O=[N+]([O-])c1ccc2c(c1)c(-c1cccc3ccccc13)nc1ccccc12`, for which the T/C is 95 % of control (dose: 100.0 mg/kg/injection, schedule: Q04DX003 (ip), vehicle: saline with Tween-80); 93 % of control (dose: 200.0 mg/kg/injection, schedule: Q04DX003 (ip), vehicle: saline with Tween-80); 91 % of control (dose: 400.0 mg/kg/injection, schedule: Q04DX003 (ip), vehicle: saline with Tween-80).

For `CCCCCCCCCCCC(=O)[O][Sn]([CH2]C)([CH2]C)[O]C(=O)CCCCCCCCCCC`, the T/C reads like this: (dose: 6.25 mg/kg/injection, schedule: Q04DX003 (ip), vehicle: saline) 112 % of control; (dose: 8.75 mg/kg/injection, schedule: Q01DX009 (ip), vehicle: saline with Tween-80) 98 % of control; (dose: 12.5 mg/kg/injection, schedule: Q01DX001 (ip), vehicle: saline) 103 % of control; (dose: 12.5 mg/kg/injection, schedule: Q04DX003 (ip), vehicle: saline) 105 % of control; (dose: 17.5 mg/kg/injection, schedule: Q01DX009 (ip), vehicle: saline with Tween-80) 121 % of control; (dose: 25.0 mg/kg/injection, schedule: Q01DX001 (ip), vehicle: saline) 109 % of control. Besides, the T/C (dose: 25.0 mg/kg/injection, schedule: Q04DX003 (ip), vehicle: saline) is 112 % of control and the T/C (dose: 35.0 mg/kg/injection, schedule: Q04DX003 (ip), vehicle: acetone) is 106 % of control.

For the compound `Cc1cccc(Nc2cc(=S)nc(N)[nH]2)c1`, the T/C runs as follows: (dose: 100.0 mg/kg/injection, schedule: Q01DX Z (ip), vehicle: methylcellulose (MC)) 98 % of control; (dose: 200.0 mg/kg/injection, schedule: Q01DX Z (ip), vehicle: methylcellulose (MC)) 106 % of control.

For the compound `O=C(c1ccccc1)C1C2C=CC(C2)C1C(=O)c1ccccc1` (configuration not stated), the T/C is, setting by setting: (dose: 100.0 mg/kg/injection, schedule: Q01DX009 (ip), vehicle: Klucel (hydroxypropylcellulose) (HPC)) 94 % of control; (dose: 100.0 mg/kg/injection, schedule: Q04DX003 (ip), vehicle: Klucel (hydroxypropylcellulose) (HPC)) 108 % of control; (dose: 200.0 mg/kg/injection, schedule: Q01DX009 (ip), vehicle: Klucel (hydroxypropylcellulose) (HPC)) 107 % of control; (dose: 200.0 mg/kg/injection, schedule: Q04DX003 (ip), vehicle: Klucel (hydroxypropylcellulose) (HPC)) 97 % of control; (dose: 400.0 mg/kg/injection, schedule: Q01DX009 (ip), vehicle: Klucel (hydroxypropylcellulose) (HPC)) 93 % of control; (dose: 400.0 mg/kg/injection, schedule: Q04DX003 (ip), vehicle: Klucel (hydroxypropylcellulose) (HPC)) 100 % of control.

Consider `COc1ccc2c(c1)-c1c(ccc(OC)c1OC(=O)C(=O)c1ccccc1)CC(Cl)N(C)CC2.[O]=[Cr](=[O])([OH])[OH]` (configuration not stated), for which the T/C is, setting by setting: under setting [2], 89 % of control; under setting [4], 89 % of control; under setting [6], 90 % of control.

For the compound `CC(=O)Nc1ccc(S(=O)(=O)NC(C(=O)O)C(=O)O)cc1`, the T/C under setting [1] is 100 % of control, the T/C under setting [3] is 103 % of control and the T/C under setting [5] is 103 % of control.

In the case of `O=[N+]([O-])c1ccccc1C1OCCO1`, the T/C by setting is: (dose: 50.0 mg/kg/injection, schedule: Q01DX001 (ip), vehicle: carboxymethylcellulose (CMC)) 95 % of control; (dose: 100.0 mg/kg/injection, schedule: Q01DX001 (ip), vehicle: carboxymethylcellulose (CMC)) 93 % of control; (dose: 200.0 mg/kg/injection, schedule: Q01DX001 (ip), vehicle: carboxymethylcellulose (CMC)) 101 % of control; (dose: 400.0 mg/kg/injection, schedule: Q01DX001 (ip), vehicle: carboxymethylcellulose (CMC)) 93 % of control.
